Reference: PMC12655172, “Borylated 5-Membered Ring Iminosugars: Synthesis and Biological Evaluation for Glycosidase Inhibition and Anticancer Properties for Application in Boron Neutron Capture Therapy (BNCT)—Part 2” (Pharmaceuticals, 2025)

Legend:
[1] = test system: T1, α-D-galactosidase (coffee beans); assay: Glycosidase inhibition (Table 2 panel); format: biochemical
T1 construct: purchased Sigma-Aldrich; host or cells: coffee beans
Text: (§1) The enzymes α-D-glucosidase (yeast), β-D-glucosidases (almond, bovine liver), α-D-galactosidase (coffee beans), β-D-galactosidase (bovine liver), α-D-mannosidase (Jack bean), β-D-mannosidase (snail), α-L-rhamnosidase (P. decumbens), α-L-fucosidase (bovine kidney), trehalase (porcine kidney), β-D-glucuronidases (E. coli, bovine liver), amyloglucosidase (A. niger), para-nitrophenyl glycosides, and various disaccharides were purchased from Sigma-Aldrich Co (St. Louis, MO, USA).
(§2) Brush border membranes were prepared from the rat small intestine according to the method of Kessler et al., and were assayed at pH 6.8 for rat intestinal maltase using maltose. For rat intestinal maltase, porcine kidney trehalase, and A. niger amyloglucosidase activities, the reaction mixture contained maltose ([…]) and the appropriate amount of enzyme, and the incubations were performed for 10–30 min at 37 °C. The reaction was stopped by heating at 100 °C for 3 min. After centrifugation (600 g; 10 min), the resulting reaction mixture was added to the Glucose CII-test Wako (Wako Pure Chemical Ind., Osaka, Japan). The absorbance at 505 nm was measured to determine the amount of the released D-glucose. Other glycosidase activities were determined using an appropriate para-nitrophenyl glycoside as substrate at the optimum pH of each enzyme. The reaction mixture contained the substrate ([…]) and the appropriate amount of enzyme. The reaction was stopped by the addition of Na2CO3 ([…]). The released para-nitrophenol was measured spectrometrically at 400 nm. All reactions were run in […].

[2] = test system: β-D-glucuronidase (bovine liver); assay: Glycosidase inhibition (Table 2 panel); format: biochemical
Text: as §1, §2

β-D-mannosidase (snail) = assay: Glycosidase inhibition (Table 2 panel); format: biochemical
Text: as §1, §2

β-D-glucosidase (almond) = assay: Glycosidase inhibition (Table 3 panel); format: biochemical; settings: 1 mg/mL aqueous solution; run in water
Protocol: (§3) All enzymes and para-nitrophenyl substrates were purchased from Sigma. Enzymes were assayed at 27 °C in citric acid (0.1 M)/disodium hydrogen phosphate (0.2 M) buffers at the optimum pH for the enzyme. The incubation mixture consisted of […] of 1 mg/mL aqueous solution of extract and […] of the appropriate […] para-nitrophenyl substrate made up in buffer at the optimum pH for the enzyme. The reactions were stopped by addition of […] 0.4 M glycine (pH 10.4) during the exponential phase of the reaction, which had been determined at the beginning using uninhibited assays in which water replaced the inhibitor. Final absorbances were read at 405 nm using a Versamax microplate reader (Molecular Devices, Wokingham, UK). Assays were carried out in triplicate, and the values given are means of the three replicates per assay. All reactions were run in water.

[3] = test system: β-D-glucuronidase (bovine liver); assay: Glycosidase inhibition (Table 3 panel); format: biochemical; settings: 1 mg/mL aqueous solution; run in water
Protocol: as §3

[4] = Sample appearance on sample preparation in water; format: physicochemical; settings: 1 mL of water was added to 1 mg solid
[5] = test system: A2780 (ovarian carcinoma); assay: Cancer screening, MTT growth inhibition; format: cell-based; settings: for inhibition at 25 µM / GI50: Homo sapiens; for inhibition at 25 µM: A2780, 25 µM of drug, read-out: DOSE SCREEN percentage (%) cell growth inhibition A2780 Ovarian; for GI50: A2780, 72 h, read-out: DOSE RESPONSE GI50 A2780 Ovarian
Protocol: (§4) For Table 4, all test agents were prepared as stock solutions ([…]) in dimethyl sulfoxide (DMSO) and stored at −20 °C. Cell lines used in the study included HT29 (colorectal carcinoma), A2780 (ovarian carcinoma), H460 (lung carcinoma), A431 (skin carcinoma), MiaPaCa-2 (pancreatic carcinoma), and SMA560 (spontaneous murine astrocytoma), together with MCF10A (non-tumour derived normal breast cell line). Cell line sources: the HT29, H460, and MiaPaCa-2, together with MCF10A were purchased from ATCC. The A2780 and A431 were purchased from the European Collection of Cell Culture (ECACC). All cell lines were incubated in a humidified atmosphere 5% CO2 at 37 °C. The cancer cell lines were maintained in Dulbecco’s modified Eagle’s medium (DMEM; Sigma, Truganina, Australia) supplemented with foetal bovine serum (10%), sodium pyruvate ([…]), penicillin (100 IUmL^−1), streptomycin (100 µg mL^−1), and L-glutamine ([…]).
(§5) Growth inhibition was determined by plating cells in duplicate in medium (100 µL) at a density of 2500–4000 cells per well in 96-well plates. On day 0 (24 h after plating), when the cells are in logarithmic growth, medium (100 µL) with or without the test agent was added to each well. […] Each data point is the mean ± the standard error of the mean (SEM) calculated from three replicates which were performed on separate occasions and separate cell line passages.

A431 (skin carcinoma) = assay: Cancer screening, MTT growth inhibition; format: cell-based; settings: for inhibition at 25 µM / GI50: Homo sapiens; for inhibition at 25 µM: A-431, 25 µM of drug, read-out: DOSE SCREEN percentage (%) cell growth inhibition A431 Skin; for GI50: A-431, 72 h, read-out: DOSE RESPONSE GI50 A431 Skin
Protocol: as §4, §5

H460 (lung carcinoma) = assay: Cancer screening, MTT growth inhibition; format: cell-based; settings: for inhibition at 25 µM / GI50: Homo sapiens; for inhibition at 25 µM: NCI-H460, 25 µM of drug, read-out: DOSE SCREEN percentage (%) cell growth inhibition H460 Lung; for GI50: NCI-H460, 72 h, read-out: DOSE RESPONSE GI50 H460 Lung
Protocol: as §4, §5

[6] = test system: HT29 (colorectal carcinoma); assay: Cancer screening, MTT growth inhibition; format: cell-based; settings: for inhibition at 25 µM / GI50: Homo sapiens; for inhibition at 25 µM: HT-29, 25 µM of drug, read-out: DOSE SCREEN percentage (%) cell growth inhibition HT29 Colon; for GI50: HT-29, 72 h, read-out: DOSE RESPONSE GI50 HT29 Colon
Protocol: as §4, §5

[7] = test system: MIA-Pa-Ca2 (pancreatic carcinoma); assay: Cancer screening, MTT growth inhibition; format: cell-based; settings: for inhibition at 25 µM / GI50: Homo sapiens; for inhibition at 25 µM: MIA PaCa-2, 25 µM of drug, read-out: DOSE SCREEN percentage (%) cell growth inhibition MIA-Pa-Ca2 Pancreatic; for GI50: MIA PaCa-2, 72 h, read-out: DOSE RESPONSE GI50 MIA-Pa-Ca2 Pancreatic
Protocol: as §4, §5

[8] = test system: MCF10A (non-tumour derived normal breast cell line); assay: Cancer screening, MTT growth inhibition; format: cell-based; settings: 72 h; for inhibition at 25 µM / GI50: Homo sapiens, MCF-10A; for inhibition at 25 µM: read-out: DOSE SCREEN percentage (%) cell growth inhibition MCF10A Breast (normal); for GI50: read-out: DOSE RESPONSE GI50 MCF10A Breast (normal)
α-D-glucosidase (yeast) = target: T2, α-D-glucosidase (yeast) (Saccharomyces cerevisiae, UniProt P53341); assay: Glycosidase inhibition (Table 3 panel); format: biochemical; settings: 1 mg/mL aqueous solution, run in water; for inhibition at 1000 µg/mL (stock): read-out: Percentage inhibition α-D-Glucosidase Yeast
T2 construct: purchased Sigma-Aldrich
Protocol: All enzymes and para-nitrophenyl substrates were purchased from Sigma. Enzymes were assayed at 27 °C in citric acid (0.1 M)/disodium hydrogen phosphate (0.2 M) buffers at the optimum pH for the enzyme. The incubation mixture consisted of […] of 1 mg/mL aqueous solution of extract and […] of the appropriate 5 μM para-nitrophenyl substrate made up in buffer at the optimum pH for the enzyme. […] Assays were carried out in triplicate, and the values given are means of the three replicates per assay. All reactions were run in water.

T2 sequence (P53341 whole entry): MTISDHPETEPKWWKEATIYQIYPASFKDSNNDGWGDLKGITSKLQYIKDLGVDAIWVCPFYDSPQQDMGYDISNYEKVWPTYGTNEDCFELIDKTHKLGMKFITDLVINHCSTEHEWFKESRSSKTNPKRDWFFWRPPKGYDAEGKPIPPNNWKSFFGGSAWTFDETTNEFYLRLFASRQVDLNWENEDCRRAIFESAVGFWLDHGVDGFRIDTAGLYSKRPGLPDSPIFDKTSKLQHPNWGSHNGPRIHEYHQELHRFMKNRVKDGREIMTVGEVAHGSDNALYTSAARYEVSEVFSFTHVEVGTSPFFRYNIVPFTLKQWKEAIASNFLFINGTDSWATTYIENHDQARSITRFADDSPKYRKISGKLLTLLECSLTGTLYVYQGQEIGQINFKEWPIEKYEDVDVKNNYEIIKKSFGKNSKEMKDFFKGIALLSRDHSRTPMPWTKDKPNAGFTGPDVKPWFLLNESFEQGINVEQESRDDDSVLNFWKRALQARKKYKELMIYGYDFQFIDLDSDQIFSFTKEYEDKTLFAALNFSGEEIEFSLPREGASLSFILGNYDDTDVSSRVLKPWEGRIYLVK

| Structure (SMILES) | inhibition % α-D-Galactosidase Coffee Beans ([1]; at 100 μM) | inhibition % β-D-Glucuronidase Bovine Liver ([2]; at 100 μM) | inhibition % β-D-Mannosidase Snail (β-D-mannosidase (snail); at 100 μM) | Percentage inhibition β-D-Glucosidase Almond (β-D-glucosidase (almond)) [%] | Percentage inhibition β-D-Glucuronidase Bovine Liver [3] [%] | Sample Appearance [4] | inhibition at 25 µM ([5]; 72 h) [%] | inhibition at 25 µM (A431 (skin carcinoma); 72 h) [%] | inhibition at 25 µM (H460 (lung carcinoma); 72 h) [%] | inhibition at 25 µM ([6]; 72 h) [%] | inhibition at 25 µM ([7]; 72 h) [%] | inhibition at 25 µM ([8]; 25 µM of drug) [%] | Percentage inhibition α-D-Glucosidase Yeast (α-D-glucosidase (yeast)) [%] | inhibition % α-D-Galactosidase Coffee Beans ([1]; at 1000 μM) | inhibition % β-D-Glucuronidase Bovine Liver ([2]; at 1000 μM) | inhibition % β-D-Mannosidase Snail (β-D-mannosidase (snail); at 1000 μM) | inhibition at 1000 µg/mL (stock) (α-D-glucosidase (yeast)) [%] | GI50 [5] [µM] | GI50 (A431 (skin carcinoma)) [µM] | GI50 (H460 (lung carcinoma)) [µM] | further results |
| --- | --- | --- | --- | --- | --- | --- | --- | --- | --- | --- | --- | --- | --- | --- | --- | --- | --- | --- | --- | --- | --- |
| N[C@@H](Cc1ccc(B(O)O)cc1)C(=O)O [BPA, 4-borono-L-phenylalanine, reference compound] | ^cNI ^d(4.3%) | ^cNI ^d(7.4%) | ^cNI ^d(2.1%) | 3.9 | −0.7 | Some in solution with undissolved sediment | 4 | 4 | 7 | 14 | 3 | 4 | – | – | – | – | – | – | – | – | – |
| N[C@@H](Cc1ccc(B(O)O)cc1)C(=O)O [^10B-BPA, reference compound] | ^cNI ^d(1.2%) | ^cNI ^d(0%) | ^cNI ^d(0.3%) | 3 | −1 | Some in solution with undissolved sediment | – | – | – | – | – | – | 3.4 | – | – | – | – | – | – | – | DOSE SCREEN percentage (%) cell growth inhibition A2780 Ovarian ([5]; 25 µM of drug, 72 h): * 8 ± 4%; DOSE SCREEN percentage (%) cell growth inhibition A431 Skin (A431 (skin carcinoma); 25 µM of drug, 72 h): * 4 ± 4%; DOSE SCREEN percentage (%) cell growth inhibition H460 Lung (H460 (lung carcinoma); 25 µM of drug, 72 h): * 8 ± 5%; DOSE SCREEN percentage (%) cell growth inhibition HT29 Colon ([6]; 25 µM of drug, 72 h): * 15 ± 4%; DOSE SCREEN percentage (%) cell growth inhibition MIA-Pa-Ca2 Pancreatic ([7]; 25 µM of drug, 72 h): * 11 ± 3%; DOSE SCREEN percentage (%) cell growth inhibition MCF10A Breast (normal) ([8]; 25 µM of drug): * <0% |
| CC1(C)O[C@H]2O[C@H]3[C@@H]([C@H]2O1)N(Cc1cccc(B2OC(C)(C)C(C)(C)O2)c1)C[C@H]3O [meta 2, N-(3-Methylphenylboronic acid pinacol ester)-3,6-dideoxy-3,6-imino-1,2-O-isopropylidene-α-D-gulofuranose] | ^cNI ^d(0%) | ^cNI ^d(1.4%) | ^cNI ^d(8.4%) | 13.2 | 9.9 | In solution | 25 ± 2 | 8 ± 6 | 5 ± 2 | 1 ± 10 | 19 ± 8 | 6 ± 4 | 7.9 | ^aNI ^b(0%) | ^aNI ^b(10.7%) | ^aNI ^b(3.7%) | 9.3 | > 50 | > 50 | > 50 | GI50 [6]: > 50 µM; GI50 [7]: > 50 µM; GI50 [8]: > 50 µM |
| OB(O)c1cccc(CN2C[C@@H](O)[C@H]3OC(O)[C@H](O)[C@H]32)c1 (stereo partly drawn) [meta 3, N-(3-Methylphenylboronic acid)-3,6-dideoxy-3,6-imino-D-gulofuranose] | ^cNI ^d(0%) | ^cNI ^d(1.2%) | ^cNI ^d(0%) | 61.7 | 13.3 | In solution | 18 ± 1 | 3 | 2 ± 2 | < 0 | 17 ± 4 | 6 ± 4 | – | ^aNI ^b(0.7%) | ^aNI ^b(7.2%) | ^aNI ^b(0%) | -16.7 | > 50 | > 50 | > 50 | GI50 [6]: > 50 µM; GI50 [7]: > 50 µM; GI50 [8]: > 50 µM |
